# Assay results from patent US20180353482A1, “MIRABEGRON FOR THE TREATMENT OF RETINAL DISEASES” (SORBONNE UNIVERSITE, priority 2015, published 2018).
# “Also recorded” adds a separate entry of the source.
# Assays:
# Assay type in all cases: cell-based, porcine
# RPE cells [1] = assay: Alkalinisation and measurement of lysosomal pH (pHL) of RPE cells treated with tamoxifen
# cathepsin D = assay: Cathepsin D activity measurement in RPE cells treated with concanamycin; settings: FIG. 2
# Protocol: Pigs' eyes are delivered to Institut de la Vision in a cold medium from a local slaughterhouse. The eyes are dissected so as to remove the anterior segment of the eye, the vitreous body and the neural retina. The eyeballs are then washed twice with PBS, filled with trypsin (0.25% in PBS) and incubated at 37° C. for 1 hr15. The RPE cells are then retrieved by repeated pipetting, centrifuged to remove the trypsin, and resuspended in DMEM culture medium supplemented with 20% foetal calf serum (DMEM20% FCS). The cells of each eye are then inoculated in a 6 cm diameter Petri dish, cultured in an atmosphere containing 5% CO2 at 37° C., and the culture medium is replaced after 24 hours and 4 days in vitro. After one week, the cells reach confluency and can then be passaged.
# After one week in culture, the cells are treated with trypsin and transferred into 3.5 cm diameter Petri dishes at a cell density of 1.5×10^5 cells/cm^2 in DMEM2% FCS. After 24 hours, the cells are treated with 20 nM of concanamycin so as to inhibit the activity of cathepsin D, as well as with a beta-adrenergic agonist. After 24 hours of treatment, the cells are washed with PBS and then transferred into an extraction buffer on ice. The cell extract is centrifuged at 2000 rpm at 4° C. for 10 minutes and the supernatant corresponding to the cytosolic part is frozen at −80° C. until the measurement of the enzyme activity. The activity of cathepsin D is measured using the Anson method (J Gen Physiol. 1938, 22(1):79-89) that we adapted to our experimental schedule. In brief, the cytosolic extract is incubated for 10 minutes at 37° C. in a haemoglobin solution (2.5% in 400 mM of citrate buffer at pH 2.8). The reaction is stopped by adding 5% trichloroacetic acid and the mixture is centrifuged. The optical density of the supernatant containing the breakdown products of haemoglobin is measured at 280 nm. The absorbance is corrected by subtracting that of the control, prepared as above but by adding haemoglobin after stopping the enzymatic reaction. One unit of cathepsin D is then defined as being the quantity of enzyme required to induce a change of absorbance of 1 to 280 nm for 60 minutes of incubation using the experimental conditions described hereinabove. The protein concentration of the cell lysates is measured according to the Bradford method so as to normalise the results.
# Cathepsin D is the lysosomal proteolytic enzyme mainly present in the retinal pigment epithelium involved in photoreceptor outer segment digestion. The activity thereof is dependent on the protonation of the amino acid aspartic acid of the active site thereof and on the conformation thereof, which both require an acidic environment. […]
# RPE cells [2] = assay: In vitro model of lipofuscin accumulation in RPE (oxidised photoreceptor outer segments); settings: FIG. 3
# Protocol: Pigs' eyes are delivered to Institut de la Vision in a cold medium from a local slaughterhouse. The eyes are dissected so as to remove the anterior segment of the eye, the vitreous body and the neural retina. The eyeballs are then washed twice with PBS, filled with trypsin (0.25% in PBS) and incubated at 37° C. for 1 hr15. The RPE cells are then retrieved by repeated pipetting, centrifuged to remove the trypsin, and resuspended in DMEM culture medium supplemented with 20% foetal calf serum (DMEM20% FCS). […]
# In order to induce an accumulation of lipofuscin type material in the RPE cells, the latter are treated 3 times per week with 5×10^6 POS-ox in DMEM20% FCS containing 2.5% of sucrose for two weeks. […] The autofluorescence induced by the accumulation of lipofuscin is measured using a plate reader (excitation at 480 nm and emission between 500 and 700 nm corresponding to the emission spectrum of lipofuscin).
# In order to verify whether the different beta-adrenergic agonists are capable of also acting upon lipofuscin accumulation, we also tested them in a cell model wherein this accumulation is induced by treating RPE cells with oxidised OS by UV exposure every two days. […] The lipofuscin accumulation was measured after two weeks of co-treatment by measuring the autofluorescence of the cells.
# [3] = RPE cells with 20 nM concanamycin, 24 hours of treatment
smiles,measurement,setting,value
"C[C@H](Cc1ccc2c(c1)OC(C(=O)[O-])(C(=O)[O-])O2)NC[C@H](O)c1cccc(Cl)c1.[Na+].[Na+] [CL-316,243]",concentration from which effective on re-acidification of the lysosomal pH,"RPE cells [1]; cells treated with 15 μM tamoxifen, FIG. 1",20 nM
C/C=C/[C@H]1O[C@@](O)([C@@H](C)[C@H](O)[C@H](C)[C@H]2OC(=O)/C(OC)=C/C(C)=C/[C@@H](C)[C@@H](O)[C@@H](CC)[C@@H](O)[C@H](C)C/C(C)=C/C=C/[C@@H]2OC)C[C@@H](O)[C@@H]1C [concanamycin],cathepsin D activity,cathepsin D; [3],0.013 unit/ml of enzyme/min/μg of proteins
"Nc1nc(CC(=O)Nc2ccc(CCNC[C@H](O)c3ccccc3)cc2)cs1 [mirabegron, (R)-2-(2-aminothiazol-4-yl)-4′-[2-[(2-hydroxy-2-phenylethyl)amino]ethyl]acetic acid anilide]",effect on lysosomal pH (in words),"RPE cells [1]; 1 pM, FIG. 1",lowers the lysosomal pH
same,restoration of cathepsin D activity (in words),cathepsin D; RPE cells treated with concanamycin,significantly restores the activity of cathepsin D
same,cathepsin D activity,cathepsin D; [3],0.040 unit/ml of enzyme/min/μg of proteins
same,multiplication of cathepsin D activity compared to negative control (concanamycin),cathepsin D; [3],3 fold
same,effect on lipofuscin accumulation / photoreceptor outer segment digestion (in words),"RPE cells [2]; RPE cells, two weeks of treatment",significantly reduce the accumulation of lipofuscin; also recorded: reduces the accumulation of lipofuscin
same,reduction of the accumulation of lipofuscin by RPE cells (autofluorescence),"RPE cells [2]; agonist at 10 μM, two weeks of co-treatment with oxidised outer segments, versus DMSO control",~20%
CC/C(=C(\c1ccccc1)c1ccc(OCCN(C)C)cc1)c1ccccc1 [tamoxifen],increase in the lysosomal pH,"RPE cells [1]; 15 μM tamoxifen, in 20 minutes",~1 pH unit
